Data taken from patent US8378070B2, “Peptides for the regulation of neurotransmitter sequestration and release” (Ramot at Tel-Aviv University Ltd., priority 2007, dated 2013).

Columns and labels:
[1] = test system: striatum; test: In vivo 6-hydroxydopamine hemiparkinsonian mouse model, striatal Western blotting; settings: mice
Description: In vivo 6-hydroxydopamine hemiparkinsonian mouse model: Eight-week-old male C57BL/6 mice (Harlan, Israel; 22-28 g) were used for 6-hydroxydopamine hemiparkinsonian mouse model experiments. All animals were housed in standard conditions, in a constant temperature (22±1° C.), relative humidity (30%), 12-h light: 12-h dark cycle, with free access to food and water. Surgical procedures were performed under the supervision of the Animal Care Committee at the Rabin Medical Center and at Tel Aviv University, Tel Aviv, Israel. Mice received a unilateral, right intrastriatal injection of […] 6-hydroxydopamine hydrobromide (Sigma, Israel) using a stereotaxic surgical procedure. Injections were targeted to the central striatum using the following coordinates: 0.5 mm anterior to bregma, 2.0 mm lateral to bregma, and 2.5 mm deep to the skull surface. Treatments were administered in a volume of 2.0 μL at a rate of 0.5 μL/min. 24 hours after 6-hydroxydopamine lesioning, striatal tissue was collected from both the injected and intact sides for DJ-1, VMAT2 and TH analysis. For analysis of acute 6-hydroxydopamine effects on phosphokinases striatal tissue was excised after 30 and 45 minutes of 6-hydroxydopamine injection.

[2] = test system: DJ-1 mRNA; test: Real time quantitative PCR of DJ-1 mRNA; assay type: cell-based, human
Description: Cellular transfection and treatment: SH-SY5Y human neuroblastoma cells, obtained from the ATCC (Rockville, USA), were stably transfected with pIRES2-acGFP1 plasmid (BD biosciences, Clontech) containing wild type DJ-1. […] As controls, naïve neuroblastoma cells were used as well as cells stably transfected with the same vectors. Transfections were performed using the lipofectamine 2000 reagent (Invitrogen). Stable transfections were achieved by geneticin treatment and were verified by measuring DJ-1 mRNA and protein levels using real-time PCR and Western blotting. […] RNA isolation and Real time quantitative PCR: Total RNA was isolated from cultured neuroblastoma cells using a commercial reagent TriReagentTM (Sigma). The amount and quality of RNA was determined spectrophotometrically using the ND-1000 spectrophotometer (NanoDrop). First-strand cDNA synthesis was carried out from […] of the total RNA using random primer (Invitrogen) and RT-superscript II (Invitrogen) reverse transcriptase. Real-time quantitative reverse transcription polymerase chain reaction (PCR) of the desired genes was performed in an ABI Prism 7700 sequence detection system (Applied biosystems) using Sybr green PCR master mix (Applied biosystems) and the following primers: GAPDH (used as 'housekeeping' gene) sense: […] NO: 7), GAPDH antisense: […] NO: 8); DJ-1 sense: […] ID NO: 9) DJ-1 antisense: […] ID NO:10) VMAT2 sense: […] ID NO: 11) VMAT2 antisense: […] NO: 12). Real time quantitative PCR (qPCR) was performed using AbsoluteTM QPCR SYBR® Green ROX Mix, in triplicates. Quantitative calculations of the gene of interest versus GAPDH were done using the ddCT method.

[3] = test system: DJ-1 protein; test: Western blotting of DJ-1 protein in neuroblastoma cells; assay type: cell-based, human
Description: Cellular transfection and treatment: SH-SY5Y human neuroblastoma cells, obtained from the ATCC (Rockville, USA), were stably transfected with pIRES2-acGFP1 plasmid (BD biosciences, Clontech) containing wild type DJ-1. […] As controls, naïve neuroblastoma cells were used as well as cells stably transfected with the same vectors. Transfections were performed using the lipofectamine 2000 reagent (Invitrogen). Stable transfections were achieved by geneticin treatment and were verified by measuring DJ-1 mRNA and protein levels using real-time PCR and Western blotting. […] 8, 1987-1995 (2006)].

[4] = target: T1, VMAT2 (Homo sapiens, UniProt Q05940); test: KCl-induced [3H]dopamine release; assay type: cell-based
T1 construct: endogenous in cells; host or cells: SH-SY5Y human neuroblastoma cells (naive, stably transfected with wild type DJ-1, or with siRNA for DJ-1)
Description: KCl-induced dopamine release: Cells were plated on poly-D-lysin-coated 24-well plates. Cells were rinsed with assay buffer (containing Tris 4 mM, HEPES 6.25 mM, NaCl 120 mM, KCl 5 mM, CaCl2 1.2 mM, MgSO4 1.2 mM, D-glucose 5.6 mM and ascorbic acid 0.5 mM) and were then incubated with 0.5 uCi/ml [3H]Dopamine (Amersham Biosciences) for 20 minutes at 37° C. To measure stimulation-induced [3H]Dopamine release, [3H]Dopamine-loaded cells were rinsed extensively with ice cold buffer, and were treated with 60 mM KCl for 20 minutes at 37° C. and extracellular [3H]Dopamine was measured. Inhibition of VMAT2 was done using dihydrotetrabenazine (0-1 mM). All samples were analyzed with Packard liquid scintillation counter. Experiments were conducted in triplicates and repeated three times.

[5] = test system: SH-SY5Y human neuroblastoma cells; test: MTT cell viability assay; assay type: cell-based
Description: (§1) Cellular transfection and treatment: SH-SY5Y human neuroblastoma cells, obtained from the ATCC (Rockville, USA), were stably transfected with pIRES2-acGFP1 plasmid (BD biosciences, Clontech) containing wild type DJ-1. Decreased expression of DJ-1 was achieved by stable transfection with pSilencer2.1-U6 plasmid (Ambion) containing siRNA for DJ-1. As controls, naïve neuroblastoma cells were used as well as cells stably transfected with the same vectors. Transfections were performed using the lipofectamine 2000 reagent (Invitrogen). Stable transfections were achieved by geneticin treatment and were verified by measuring DJ-1 mRNA and protein levels using real-time PCR and Western blotting.
Cell viability: Cell viability was determined by the MTT (3-(4,5-dimethylthiazole-2-yl)-2,5-diphenyltetrazolium bromide, Sigma) reduction assay. Viability after exposure to increasing dopamine levels was analyzed by adding MIT solution to each well followed by incubation at 37° C. for 3 hours. Absorbance was determined at 564 nm in a microplate reader. Cell viability was evaluated in triplicate for each treatment. All experiments were repeated at least 3 times.

[6] = test system: SH-SY5Y human neuroblastoma cells; test: Intracellular reactive oxygen species (DCF assay); assay type: cell-based
Description: as §1
Measurement of intracellular reactive oxygen species (ROS): The generation of ROS, after exposure to increasing dopamine concentrations, was measured using H2DCFDA (Sigma), which is incorporated into the cells and cleaved into fluorescent DCF in the presence of ROS. 10 μM H2DCFDA was added to the cell suspension, and the cells were incubated in the dark at 37° C. for 10 minutes. DCF fluorescence was measured by FLUOstar spectrofluorometer microplate reader at 520 nm. The generation of ROS was quantitatively assayed by the increase in DCF fluorescence and expressed as percentage of control. Each experiment was repeated at least 3 times in triplicates.

[7] = test system: VMAT2 mRNA; test: Real time quantitative PCR of VMAT2 mRNA; assay type: cell-based, human
Description: Cellular transfection and treatment: SH-SY5Y human neuroblastoma cells, obtained from the ATCC (Rockville, USA), were stably transfected with pIRES2-acGFP1 plasmid (BD biosciences, Clontech) containing wild type DJ-1. […] As controls, naïve neuroblastoma cells were used as well as cells stably transfected with the same vectors. Transfections were performed using the lipofectamine 2000 reagent (Invitrogen). Stable transfections were achieved by geneticin treatment and were verified by measuring DJ-1 mRNA and protein levels using real-time PCR and Western blotting. […] RNA isolation and Real time quantitative PCR: Total RNA was isolated from cultured neuroblastoma cells using a commercial reagent TriReagentTM (Sigma). The amount and quality of RNA was determined spectrophotometrically using the ND-1000 spectrophotometer (NanoDrop). […] Real-time quantitative reverse transcription polymerase chain reaction (PCR) of the desired genes was performed in an ABI Prism 7700 sequence detection system (Applied biosystems) using Sybr green PCR master mix (Applied biosystems) and the following primers: GAPDH (used as 'housekeeping' gene) sense: […] […] Real time quantitative PCR (qPCR) was performed using AbsoluteTM QPCR SYBR® Green ROX Mix, in triplicates. Quantitative calculations of the gene of interest versus GAPDH were done using the ddCT method.

[8] = test system: ERK 1,2
Description: Cells were treated with dopamine (0-500 uM; Sigma. Israel), N-acetylcysteine (NAC 5 mM; Sigma), and PD-98059 (30 uM; Calbiochem, Rosh Haayin, Israel).
Protein extraction and Western blotting: Protein extraction and Western blotting were done as previously described [Lev, N., et al Antioxid. redox signal. 8, 1987-1995 (2006)]. The membranes were probed with rabbit anti-DJ 1 antibody (1:1000; Chemicon Laboratories), mouse anti-VMAT2 (1:100; Chemicon Laboratories), and rabbit anti emerin (1:5000; Santa Cruz), followed by horseradish peroxidase conjugated secondary antibody (1:10000; Sigma) and developed with the Super Signal West Pico Chemiluminescent substrate (Pierce Biotechnology). Densitometry of the specific protein bands was preformed by VersaDoc® imaging system and Quantity One® software (BioRad).
Immunocytochemistry: Cells were fixed with 4% paraformaldehyde and permeabilized with 0.5% Triton X-100 and were then incubated in a blocking solution followed by overnight incubation with rabbit anti-VMAT2 (1:100; Chemicon Laboratories), at 4° C. followed by incubation with alexa-568 conjugated goat anti rabbit antibodies (1:1000; Molecular probes). Nuclei were counterstained by 4′,6-Diamidino-2-phenylindole dihydrochloride (DAPI, Sigma).

[9] = test system: VMAT2 promotor; settings: after exposure to 50 μM dopamine
Description: Chromatin immunoprecipitation: ChIP assays using cultured neuroblastoma cells were performed following Upstate instructions. After protein-DNA cross-linking by paraformaldehyde, cells were harvested and the pellets were resuspended in lysis-buffer and sonicated on ice (5 sets of 15-s pulse at 40% maximal power). After pre-clearing with Protein G/A-agarose, aliquots were incubated with DJ-1 antibodies or non-specific antibodies (as control) overnight at 4° C. with rotation. Immunopercipitated DNA was used as templates for the following primers, designed for the human VMAT promotor: sense: [sequence]

[10] = test system: tyrosine hydroxylase (TH); test: Tyrosine hydroxylase mRNA (real time PCR) and ChIP of TH promotor; assay type: cell-based, human; settings: DJ-1 overexpressing cells, GAPDH reference
Description: RNA isolation and Real time quantitative PCR: Total RNA was isolated from cultured neuroblastoma cells using a commercial reagent TriReagent™ (Sigma). The amount and quality of RNA was determined spectrophotometrically using the ND-1000 spectrophotometer (NanoDrop). First-strand cDNA synthesis was carried out from […] of the total RNA using random primer (Invitrogen) and RT-superscript II (Invitrogen) reverse transcriptase. Real-time quantitative reverse transcription polymerase chain reaction (PCR) of the desired genes was performed in an ABI Prism 7700 sequence detection system (Applied biosystems) using Sybr green PCR master mix (Applied biosystems) and the following primers: GAPDH (used as ‘housekeeping’ gene) sense: CGACAGTCAGCCGCATCTT (SEQ ID NO: 7), GAPDH antisense: […] (SEQ ID NO: 8); DJ-1 sense: […], (SEQ ID NO: 9) DJ-1 antisense: […], (SEQ ID NO:10) VMAT2 sense: […], (SEQ ID NO: 11) VMAT2 antisense: […] (SEQ ID NO: 12). Real time quantitative PCR (qPCR) was performed using Absolute™ QPCR SYBR® Green ROX Mix, in triplicates. Quantitative calculations of the gene of interest versus GAPDH were done using the ddCT method.

[11] = PD98059 30 uM, inhibition of ERK1,2 phosphorylation

T1 sequence (Q05940 whole entry): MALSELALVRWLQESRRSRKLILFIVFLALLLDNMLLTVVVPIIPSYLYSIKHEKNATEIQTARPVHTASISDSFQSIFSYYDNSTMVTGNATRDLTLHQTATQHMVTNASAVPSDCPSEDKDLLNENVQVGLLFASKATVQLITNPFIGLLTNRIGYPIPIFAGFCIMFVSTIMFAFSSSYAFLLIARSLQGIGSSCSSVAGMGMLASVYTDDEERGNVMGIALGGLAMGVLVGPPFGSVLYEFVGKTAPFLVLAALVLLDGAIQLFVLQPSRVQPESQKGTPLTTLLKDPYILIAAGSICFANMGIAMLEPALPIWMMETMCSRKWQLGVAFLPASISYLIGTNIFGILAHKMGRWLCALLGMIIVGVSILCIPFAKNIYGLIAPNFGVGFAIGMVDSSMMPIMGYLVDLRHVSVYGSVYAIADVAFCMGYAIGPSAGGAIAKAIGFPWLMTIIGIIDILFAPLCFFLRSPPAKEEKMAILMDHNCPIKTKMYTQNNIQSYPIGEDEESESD

Br.NCCc1cc(O)c(O)cc1O [6-hydroxydopamine, 6-hydroxydopamine hydrobromide]
ERK1,2 phosphorylation in striatum ([1]; acute exposure, intrastriatal injection, 30 and 45 minutes): increased phosphorylation of ERK1, 2
DJ-1 and VMAT-2 protein expression in lesioned vs unlesioned striatum ([1]; unilateral intrastriatal injection, 24 hours): increased expression of DJ-1 and of VMAT-2 proteins

CC(=O)N[C@@H](CS)C(=O)O [NAC, N-acetylcysteine]
Effect on dopamine-induced DJ-1 mRNA upregulation ([2]; pre-treatment with NAC 5 mM, naïve neuroblastoma): abolished DJ-1 mRNA upregulation

COc1cccc(-c2cc(=O)c3ccccc3o2)c1N [PD98059]
Effect on dopamine-induced DJ-1 mRNA upregulation [2, 11]: inhibited DJ-1 mRNA upregulation
Effect on dopamine-induced DJ-1 protein upregulation (Western blot) [3, 11]: abolished DJ-1 protein upregulation

COc1cc2c(cc1OC)[C@H]1C[C@@H](O)[C@H](CC(C)C)CN1CC2 [dihydrotetrabenazine]
KCl induced dopamine release ([4]; dihydrotetrabenazine 0-1 mM, 60 mM KCl 20 minutes): abolished

NCCc1ccc(O)c(O)c1 [dopamine]
Cell viability (MTT) after dopamine exposure ([5]; dopamine 0-500 uM, 24 hours, neuroblastoma cells): dose dependent cell death
Intracellular ROS (DCF assay) after dopamine exposure ([6]; increasing dopamine concentrations, neuroblastoma cells): increased intracellular ROS
Increase in DJ-1 mRNA ([2]; 50 μM dopamine, within 1 hour, naïve neuroblastoma cells): 2.5 fold
VMAT2 mRNA elevation of basal level ([7]; 50 μM dopamine, after 7 hours, naïve neuroblastoma cells): 60 fold
DJ-1 protein after dopamine exposure (Western blot) ([3]; naïve neuroblastoma cells): Increased DJ-1 protein
Time to phosphorylation of ERK 1,2 after dopamine exposure ([8]; naive neuroblastoma, Western blotting and immunocytochemistry): 20 to 60 min
Phosphorylation of ERK 1 and 2 after dopamine exposure ([8]; naïve neuroblastoma cells): rapid phosphorylation
VMAT2 promotor precipitated by anti-DJ-1 antibodies (ChIP) [9]: higher amounts of VMAT2 promotor were precipitated

B1: DJ-1: wild type DJ-1 overexpressed by stable transfection with pIRES2-acGFP1 plasmid; GenBank AB073864 (protein, listed as Homo sapiens)
chain: MASKRALVILAKGAEEMETVIPVDVMRRAGIKVTVAGLAGKDPVQCSRDVVICPDASLEDAKKEGPYDVVVLPGGNLGAQNLSESAAVKEILKEQENRKGLIAAICAGPTALLAHEIGCGSKVTTHPLAKDKMMNGGHYTYSENRVEKDGLILTSRGPGTSFEFALAIVEALNGKEVAAQVKAPLVLKD
Protection against rotenone and 6-hydroxydopamine ([5]; DJ-1 overexpressing neuroblastoma cells): protects against dopaminergic toxins
Vulnerability to dopamine toxicity (MTT viability) ([5]; dopamine 0-500 uM, 24 hours, transfected SH-SY5Y cells): conferred resistance to dopamine
Dopamine-induced intracellular ROS (DCF assay) ([6]; transfected SH-SY5Y cells vs naïve neuroblastoma): decreased intracellular ROS
DJ-1 mRNA and protein levels in overexpressing cells ([2]; stable transfection with wild type DJ-1): over 3 fold
VMAT2 expression level compared to control (mRNA) ([7]; stably transfected SH-SY5Y cells): over 500 fold
KCl-induced dopamine release from synaptic vesicles compared to naïve neuroblastoma cells ([4]; transfected SH-SY5Y cells): released more dopamine
TH mRNA levels (real time PCR) [10]: upregulation of TH mRNA
